Measured values reported in patent publication US8119645B2, “Fungicide hydroximoyl-tetrazole derivatives” (Bayer Cropscience AG, priority 2006, dated 2012).

Assay: logP by reversed-phase HPLC (EEC Directive 79/831 Annex V.A8)
Assay type: physicochemical
Settings: for LogP: HPLC C18, 40° C., 0.1% aqueous formic acid / acetonitrile gradient
Method: Temperature: 40° C.; Mobile phases: 0.1% aqueous formic acid and acetonitrile; linear gradient from 10% acetonitrile to 90% acetonitrile.

| SMILES | LogP | chromatographic logP |
| --- | --- | --- |
| CCCCCC(=O)Nc1nc(CON=C(c2ccc(-c3ccccc3)s2)n2nnnc2C)cs1 [Compound 57] | 4.58 | – |
| CCCCCC(=O)Nc1nc(CON=C(c2ccc(Cl)s2)n2nnnc2C)cs1 [Compound 106] | 4.12 | – |
| Cc1nnnn1C(=NOCc1csc(NC(=O)C2CC2)n1)c1ccc(Br)s1 [Compound 96] | 3.04 | – |
| C=CCC(=O)Nc1nc(CON=C(c2ccc(Br)s2)n2nnnc2C)cs1 [Compound 97] | 3.08 | – |
| Cc1nnnn1C(=NOCc1csc(NC(=O)Cc2ccccc2)n1)c1ccc(-c2ccccc2)s1 [Compound 54] | 4.08 | – |
| Cc1nnnn1C(=NOCc1csc(NC(=O)C2CC2)n1)c1ccc(-c2ccccc2)s1 [Compound 55] | 3.7 | – |
| CCCCCNC(=O)Nc1nc(CON=C(c2ccsc2)n2nnnc2C)cs1 [Compound 22] | 2.99 | – |
| Cc1nnnn1C(=NOCc1csc(NC(=O)CCc2ccccc2)n1)c1ccc(Cl)s1 [Compound 108] | 3.85 | – |
| Cc1nnnn1C(=NOCc1csc(NC(=O)c2ccccc2)n1)c1ccc(Br)s1 [Compound 91] | 3.61 | – |
| Cc1ccc(C(=NOCc2csc(NC(=O)NCCc3ccccc3)n2)n2nnnc2C)s1 [Compound 118] | 3.33 | – |
| Cc1nnnn1C(=NOCc1csc(N)n1)c1ccc(-c2ccccc2)o1 [Compound 131] | 2.13 | – |
| Cn1nnnc1C(=NOCc1csc(NC(=O)Cc2ccccc2)n1)c1csc(-c2ccccc2)n1 [Compound 172] | 3.58 | – |
| C=CCNC(=O)Nc1nc(CON=C(c2ccsc2)n2nnnc2C)cs1 [Compound 27] | 2.22 | – |
| Cn1nnnc1/C(=N/OCc1cccc(N2C(=O)c3ccccc3C2=O)n1)c1csc(-c2ccccc2)n1 [Compound 173, O-(2-Phtalimidopyridin-6-yl)methyl-(2-phenyl-1,3-thiazol-4-yl)-(1-methyitetrazol-5-yl)methanone oxime] | – | 3.46 |
| CCc1nnnn1C(=NOCc1csc(NC(=O)C(C)(C)C)n1)c1ccsc1 [Compound 42] | 3.35 | – |
| Cc1nnnn1C(=NOCc1csc(NC(=O)Cc2ccccc2)n1)c1ccsc1Cl [Compound 10] | 3.21 | – |
| Cc1ccc(C(=NOCc2csc(NC(=O)CCc3ccccc3)n2)n2nnnc2C)s1 [Compound 122] | 3.54 | – |
| Cn1nnnc1/C(=N/OCc1cccc(N)n1)c1csc(-c2ccccc2)n1 [Compound 174, O-(2-Aminopyridin-6-yl)methyl-(2-phenyl-1,3-thiazol-4-yl)-(1-methyltetrazol-5-yl)methanone oxime] | – | 1.57 |
| Cc1ccc(C(=NOCc2csc(NC(=O)COCc3ccccc3)n2)n2nnnc2C)o1 [Compound 67] | 3.12 | – |
| Cc1nnnn1C(=NOCc1csc(NC(=S)NCCc2ccccc2)n1)c1ccsc1 [Compound 47] | 3.65 | – |
| COCCOC(=O)Nc1cccc(CON=C(c2ccsc2Cl)n2nnnc2C)n1 [Compound 17] | 2.66 | – |
| CCCCCC(=O)Nc1cccc(CON=C(c2ccc(C)s2)n2nnnc2C)n1 [Compound 127] | 3.79 | – |
| Cc1nnnn1C(=NOCc1cccc(NC(=O)c2ccccc2)n1)c1ccsc1Cl [Compound 1] | 3.26 | – |

| SMILES | LogP | chromatographic logP |
| --- | --- | --- |
| Cc1nnnn1C(=NOCc1csc(NC(=O)CCCc2ccccc2)n1)c1ccsc1 [Compound 45] | 3.49 | – |
| Cc1ccc(C(=NOCc2csc(N)n2)n2nnnc2C)o1 [Compound 58] | 1.47 | – |
| Cc1nnnn1C(=NOCc1csc(NC(=O)C(C)C)n1)c1ccsc1Cl [Compound 12] | 2.86 | – |
| COCCOCC(=O)Nc1nc(CON=C(c2ccc(C)s2)n2nnnc2C)cs1 [Compound 129] | 2.6 | – |
| Cc1nnnn1C(=NOCc1csc(NC(=O)C(C)C)n1)c1ccc(Br)s1 [Compound 94] | 3.22 | – |
| Cc1nnnn1C(=NOCCc1csc(NC(=O)C(C)(C)C)n1)c1ccsc1 [Compound 51] | 3.19 | – |
| Cc1nnnn1C(=NOCc1csc(NC(=O)CCc2ccccc2)n1)c1ccsc1 [Compound 33] | 3.14 | – |
| COCCOC(=O)Nc1nc(CON=C(c2ccc(C)o2)n2nnnc2C)cs1 [Compound 71] | 2.37 | – |
| Cc1nnnn1C(=NOCc1csc(NC(=O)CCCc2ccccc2)n1)c1ccc(Cl)s1 [Compound 107] | 4.12 | – |
| CCCCCC(=O)Nc1cccc(CON=C(c2ccsc2Cl)n2nnnc2C)n1 [Compound 3] | 3.65 | – |
| COCCOCC(=O)Nc1nc(CON=C(c2ccc(C)o2)n2nnnc2C)cs1 [Compound 70] | 2.23 | – |
| Cc1nnnn1C(=NOCc1cccc(NC(=O)c2ccccc2)n1)c1ccsc1 [Compound 38] | 3.01 | – |
| Cc1ccc(C(=NOCc2csc(NC(=O)C3CC3)n2)n2nnnc2C)o1 [Compound 68] | 2.41 | – |
| COCCOC(=O)Nc1nc(CON=C(c2ccsc2)n2nnnc2C)cs1 [Compound 49] | 2.3 | – |
| Cc1nnnn1C(=NOCc1csc(NC(=O)OCc2ccccc2)n1)c1ccc(Cl)s1 [Compound 109] | 3.93 | – |
| Cc1nnnn1C(=NOCc1csc(NC(=O)CCCCl)n1)c1ccsc1 [Compound 34] | 2.67 | – |
| COCCOC(=O)Nc1nc(CON=C(c2ccc(Cl)s2)n2nnnc2C)cs1 [Compound 112] | 3.05 | – |
| Cc1nnnn1C(=NOCc1csc(NC(=O)C(C)C)n1)c1ccc(-c2ccccc2)o1 [Compound 134] | 3.27 | – |
| Cc1nnnn1C(=NOCc1csc(NC(=O)C(C)(C)C)n1)c1ccc(-c2ccccc2)s1 [Compound 53] | 4.24 | – |
| COCCOCC(=O)Nc1nc(CON=C(c2ccc(Br)s2)n2nnnc2C)cs1 [Compound 98] | 2.94 | – |
| Cc1nnnn1C(=NOCc1csc(NC(=O)NC(C)C)n1)c1ccsc1 [Compound 26] | 2.32 | – |
| CCCCCCCCC(=O)Nc1nc(CON=C(c2ccsc2Cl)n2nnnc2C)cs1 [Compound 11] | 4.77 | – |
| CCCCCCCCC(=O)Nc1nc(CON=C(c2ccsc2)n2nnnc2C)cs1 [Compound 41] | 4.51 | – |

| SMILES | LogP | chromatographic logP |
| --- | --- | --- |
| Cc1nnnn1C(=NOCc1csc(NC(=O)CCCCl)n1)c1ccc(-c2ccccc2)o1 [Compound 136] | 3.39 | – |
| Cc1nnnn1C(=NOCc1csc(NC(=O)NCCc2ccccc2)n1)c1ccsc1 [Compound 24] | 2.86 | – |
| Cn1nnnc1C(=NOCc1cccc(NC(=O)C(C)(C)C)n1)c1csc(-c2ccccc2)n1 [Compound 176] | 3.7 | – |
| Cc1nnnn1C(=NOCc1csc(NC(=O)c2ccccc2)n1)c1ccsc1Cl [Compound 4] | 3.26 | – |
| Cc1nnnn1C(=NOCc1csc(N)n1)c1ccc(-c2ccc(Cl)c(Cl)c2)o1 [Compound 81] | 2.83 | – |
| CCCCCC(=O)Nc1nc(CON=C(c2ccc(-c3ccc(Cl)c(Cl)c3)o2)n2nnnc2C)cs1 [Compound 85] | 4.78 | – |
| Cc1nnnn1C(=NOCCc1csc(N)n1)c1ccsc1 [Compound 50] | 1.16 | – |
| C=CCC(=O)Nc1nc(CON=C(c2ccsc2Cl)n2nnnc2C)cs1 [Compound 6] | 2.73 | – |
| Cn1nnnc1C(=NOCc1csc(NC(=O)OCCc2ccccc2)n1)c1csc(-c2ccccc2)n1 [Compound 166] | 4.06 | – |
| Cn1nnnc1C(=NOCc1csc(NC(=O)c2ccccc2)n1)c1csc(-c2ccccc2)n1 [Compound 169] | 3.62 | – |
| Cc1nnnn1C(=NOCc1csc(NC(=O)C2CC2)n1)c1ccc(-c2ccc(Cl)c(Cl)c2)o1 [Compound 84] | 3.83 | – |
| CCCC(=O)Nc1nc(CON=C(c2ccc(C)s2)n2nnnc2C)cs1 [Compound 114] | 2.88 | – |
| Cc1ccc(C(=NOCc2cccc(N)n2)n2nnnc2C)s1 [Compound 124] | 1.51 | – |
| Cc1ccc(C(=NOCc2csc(N)n2)n2nnnc2C)s1 [Compound 113] | 1.8 | – |
| COCCOC(=O)Nc1cccc(CON=C(c2ccc(C)o2)n2nnnc2C)n1 [Compound 73] | 2.53 | – |
| CCCCCCCCC(=O)Nc1nc(CON=C(c2ccc(-c3ccccc3)o2)n2nnnc2C)cs1 [Compound 135] | 5.01 | – |
| CCCCCC(=O)Nc1cccc(CON=C(c2ccsc2)n2nnnc2C)n1 [Compound 36] | 3.39 | – |
| Cc1ccc(C(=NOCc2csc(NC(=O)Cc3ccccc3)n2)n2nnnc2C)s1 [Compound 116] | 3.35 | – |
| C=CCC(=O)Nc1nc(CON=C(c2ccsc2)n2nnnc2C)cs1 [Compound 40] | 2.51 | – |
| Cc1nnnn1C(=NOCc1csc(NC(=O)C(C)(C)C)n1)c1ccc(Br)s1 [Compound 87] | 3.74 | – |
| Cc1ccc(C(=NOCc2csc(NC(=O)CCCc3ccccc3)n2)n2nnnc2C)s1 [Compound 121] | 3.81 | – |
